Legend:
[1] = system: mice exposed to total body irradiation (TBI); experiment: Phase 2 efficacy: survival of mice dosed before total body irradiation (TBI) at LD100/30; format: in vivo; conditions: for survival compared to vehicle (Group 13) by Log-rank (Mantel-Cox) test / number of animals survived until scheduled sacrifice (Day 30) / number of mice found dead / number of mice moribund sacrificed / survival compared to vehicle (Group 13) by Chi-square test: 1000 mg/kg oral gavage before TBI 9.9 Gy; for Survival: Day 30, 11 animals; for Survival / median survival time: male mice, 1000 mg/kg oral gavage 60±5 min before TBI 9.9 Gy (LD100/30); for body weight gain on Days 5 to 9: compared to the vehicle group (Group 13); for number of animals survived until scheduled sacrifice (Day 30) / number of mice found dead / number of mice moribund sacrificed: of 11 mice; for survival of animals through 30 days post exposure: treated prior to total body irradiation (LD100/30)
Description: (§1) Male mice were randomized and assessed in two phases: 1) for maximum tolerated doses (MTDs) of PrC-210, DzCH2SH, and 2Pip-2PrSH to determine dose levels for the efficacy study and 2) to evaluate the efficacy of the compounds when administered 60±5 minutes prior to exposure to total body irradiation (TBI) at an LD100/30 dose (990 cGy) (Tables 1 and 2).
(§2) For Phase 1 or 2, sterile water (vehicle), PrC-210, DzCH2SH, and 2Pip2PrSH were administered at 10 mL/kg calculated based on the most recent body weight via oral gavage. Animals were not fasted prior to administration of the compounds or vehicle. Mice in Phase 1 were administered the dose on Day 1 and mice in Phase 2 were administered the dose 60±5 minutes prior to TBI on Day 0.
Irradiation was administered once to the whole body. TBI of mice were performed using a 6 MV LINAC photon source (TrueBeam STx source). Animals were irradiated at a dose rate of up to 80 cGy/min to the midline of the animals. The source irradiated animals to 50% of the dose from anterior-posterior direction and […] from the posterior-anterior direction. Dose measurements were performed with a PTW 31010 0.1 cc Semiflex Ion chamber.
(§3) All surviving animals were observed once daily for clinical signs (e.g., unusually low or high activity, lethargy, shivering, appearance of fur, bloody and water stool, and other symptoms of moribundity) at 1-2 hours post-irradiation and/or post-dose and once daily on non-dosing days until Day 4 (Phase 1) or Day 30 (Phase 2).
In Phase 2 (Table 2), survival curves of mice treated with vehicle, PrC-210, DzCH2SH or 2Pip-PrSH prior to TBI with 9.9 Gy were measured (FIG. 1). […] Five mice were moribund sacrificed, and 6 mice were found dead. Survival in the Group 13 animals was 0% and median survival time was 8 days. In mice administered with PrC-210 before TBI (Group 14), 4 animals survived until scheduled sacrifice (Day 30) while 7 mice were moribund sacrificed. […] In mice administered with DzCH2SH before TBI (Group 15), 3 animals survived until scheduled sacrifice (Day 30) while 7 mice were moribund sacrificed, and one mouse was found dead. […] Five mice were moribund sacrificed and six mice were found dead. Survival in the Group 16 mice was 0% and median survival time was 10 days.

[2] = Hygroscopicity on 10 minute exposure to the atmosphere; format: physicochemical; conditions: 10 minute exposure of a small amount to the atmosphere; diHCl salt
Description: In Reaction E: 48 ml of HCl in methanol, 6 eq. (1.25 M solution, Aldrich #17935) was added to a solution of compound V, 3.5 g, 0.010 moles dissolved in 10 ml dry methanol in a flask under argon and equipped for magnetic stirring and the reaction was stirred at room temperature for 24 hours. […] The solution was degassed by gently bubbling argon into the solution for 30 minutes. Concentration (rotary evaporator at ambient temperature) provided a crude oily residue which was triturated with hexane producing a white solid. The hexane was removed (via pipette suction) and replaced with dry THF (25 ml). After an additional 10 minutes of trituration, the THF was removed and replaced with dry hexane (25 ml). After an additional 10 minutes of trituration, the hexane was removed and the resulting white solid was dried in vacuo over P2O5 providing 1.95 grams of diHCl salt of PrC-210 (88%). […]
In Reaction P: Compound XVI, 2.2 grams, 0.0058 moles was placed in a round-bottom flask equipped for magnetic stirring followed by 15 mL anhydrous trifluoroacetic acid (CF3COOH, Aldrich #8.08260). The flask was fitted with a condenser and the solution was refluxed for 5 hours whereupon it was determined that the reaction was complete using TLC by observing the disappearance of starting material and the appearance of a highly polar product, which stained positive with ninhydrin. […]

mice = experiment: Phase 1 maximum tolerated dose (MTD) determination in mice; format: in vivo; conditions: male mice; oral gavage; 1,000 mg/kg
Description: as §1, §2, §3
In Phase 1 (Table 1), all animals were normal when observed and all body weights were within normal range. The dose level of 1000 mg/kg was selected for Phase 2.

[3] = system: mice exposed to whole body irradiation; experiment: Radiation LD50 in mice after whole body irradiation; format: in vivo; conditions: oral gavage 60 minutes prior to whole body irradiation 2-12 Gy, 30 days
Description: The affect of the compounds according to the disclosure on the dose of radiation required to kill 50% of mice (LD50) is assessed.
Mice are assigned to three groups (Groups 1, 2 and 3). A control group, Group 1, is treated via oral gavage with vehicle (Lactated Ringer's and 5% dextrose, adjusted to pH 7.3 with sodium bicarbonate) 60 minutes prior to whole body irradiation (2 Gy). Group 2 is treated via oral gavage with PrC-210, as a positive control, dissolved in Lactated Ringer's at a dose of 200 mg/kg 60 minutes prior to whole body irradiaton (2 Gy). Group 3 is treated via oral gavage with compound 1 (PrC-210-PT) dissolved in Lactated Ringer's at a dose of 308 mg/kg 60 minutes prior to whole body irradiation (2 Gy). The mortality of the three groups is assessed for 30 days post irradiation.
The experiment is repeated using varying radiation doses of 4, 6, 8, 10 and 12 Gy. The LD50 for each group was determined.
The experiment is repeated to assess compounds 2-23 as radioprotectors.

[4] = system: mice exposed to radiation; experiment: Protection of mice from lethal radiation (8 Gy, LD100); format: in vivo; conditions: oral gavage 15-90 minutes prior to 8 Gy (LD100), 60 days post irradiation
Description: The radioprotective efficacy of the thiols, prodrugs and double prodrugs according to this disclosure is assessed in mice. The compounds of the disclosure are administered via oral gavage to mice, and are compared to mice that have been administered 3-(methylamino)-2-(methylaminomethyl)propane-1-thiol (PrC-210), as well as to a control group or mice that are administered vehicle (i.e., containing no radioprotective additive).
More specifically, mice are assigned to three groups (Groups 1, 2 and 3). A control group, Group 1, is treated via oral gavage with vehicle (Lactated Ringer's and 5% dextrose, adjusted to pH 7.3 with sodium bicarbonate) 15-90 minutes prior to a dose of 8 Gy (LD100) radiation. Group 2 is treated via oral gavage with PrC-210, as a positive control, dissolved in Lactated Ringer's at a dose of 200 mg/kg 15-90 minutes prior to irradiation with 8 Gy (LD100). Group 3 is treated via oral gavage with compound 1 (PrC-210-PT) dissolved in Lactated Ringer's at a dose of 308 mg/kg 15-90 minutes prior to irradiation with 8 Gy (LD100). The mortality of the three groups is assessed for 60 days post irradiation. The experiment is repeated with doses of PrC-210 ranging from 200 mg/kg to 450 mg/kg. Molar equivalent dosages of the test compound (compound 1, Prc-210-PT) to PrC-210 are also assessed.
The experiment is repeated to assess the efficacy of compounds 2-23 as radioprotectors.

[5] = cited from earlier work
[6] = after 1000 mg/kg oral gavage and TBI 9.9 Gy, 11 per group
[7] = after 1000 mg/kg oral gavage and TBI 9.9 Gy

Row | Structure (SMILES) | survival compared to vehicle (Group 13) by Log-rank (Mantel-Cox) test [1] | Survival [1] | number of animals with cold to touch skin [1, 6] | number of animals with eye discharge [1, 6] | number of animals with hypoactivity [1, 6] | number of animals with swollen eye [1, 6] | number of mice with lethargy [1, 6] | number of mice with swollen head [1, 6] | body weight gain on Days 5 to 9 [1, 7] | median survival time [1] | number of animals survived until scheduled sacrifice (Day 30) [1] | number of mice found dead [1] | number of mice moribund sacrificed [1] | survival of animals through 30 days post exposure [1] | hygroscopicity [2] | toxicity at the highest tested dose (mice) | survival compared to vehicle (Group 13) by Chi-square test [1] | also measured
1 | SCC1CNCCNC1 [Compound 22, (1,4-diazepan-6-yl)methanethiol] | statistically significantly higher | 27.3% | one | 2 | 5 | 2 | one | one | did not gain body weights | 11 days | 3 | one | 7 | increased survival | did not show any signs of hygroscopicity | did not produce any toxicity | – | mortality rate at 8-days post-irradiation ([1]; 1000 mg/kg oral gavage before TBI): efficacious effects; number of animals with eye cloudy [1, 6]: 2; number of animals with sunken eye [1, 6]: 1; number of mice with eye opacity [1, 6]: one; number of mice with labored breathing [1, 6]: one
2 | CNCC(CS)CNC [PrC-210, 3-(methylamino)-2-((methylamino)methyl)propane-1-thiol, reference compound] | statistically significantly higher | 36.4% | – | one | 5 | one | – | – | significantly higher | 11 days | 4 | – | 7 | increased survival | did not show any signs of hygroscopicity | did not produce any toxicity | statistically significantly higher | mean body weight on Day 9 versus Groups 13, 15 and 16 [1, 7]: higher; number of mice with tremor [1, 6]: 4; radiation LD50 versus control group [3]: control group demonstrates a lower LD50 compared to the mice treated with; rate of survival versus control group [4]: control group demonstrates a reduced rate of survival compared to the mice treated with; radioprotective properties ([5]; administered topically and orally in preclinical studies): demonstrated radioprotective properties; side effects ([5]; compared with Amifostine): less side effects than Amifostine
3 | CC(C)(S)C1CNCCN1 (centres unmarked) [Compound 2Pip-2PrSH, 2-(piperazin-2-yl)propane-2-thiol] | statistically significantly higher | 0% | 4 | one | 5 | one | one | one | did not gain body weights | 10 days | no animals survived | six | Five | – | – | did not produce any toxicity | not statistically significantly different | –
4 | NCCCNCCSP(=O)(O)O [Amifostine, amifostine] | – | – | – | – | – | – | – | – | – | – | – | – | – | – | – | – | – | efficacy as a radioprotector ([5]; administered orally): lacks efficacy
